According to patent US5512549A, “Glucagon-like insulinotropic peptide analogs, compositions, and methods of use” (Eli Lilly and Company, priority 1994, dated 1996):

Key:
[1] = system: Sprague Dawley rats; assay: Rat I.V. Hyperglycemic (150 mg/dl) Clamp Test; format: in vivo; settings: for Insulin Change AUC: 0-15 min; for GIR Change AUC: 0-30 min; for Max Insulin Change: 90 minute test period; for Duration of Insulin Effect: time average insulin change >0 ng/ml
Method: b) Hyperglycemic Clamp Studies
Experiments were conducted in chronically catheterized, normal, male Sprague Dawley rats weighing about 350 grams. At least a week prior to studies, surgery was performed on the rats under isoflurane anesthesia. Two catheters were implanted into the jugular vein for infusions of glucose and peptide and one catheter into the carotid artery for blood sampling. The catheters were exteriorized through the skin at the vertex of the head, filled with glycerol/heparin solution (3:1,v/v) and closed off with a one centimeter stainless steel plug. Animals were housed individually in wire mesh cages and allowed free access to standard rat chow diet and water.
Catheterized rats were fasted overnight prior to studies. On the morning of the experiment, rats were weighed and sampling tubings connected to their indwelling catheters. The tubings were enclosed in a light weight stainless steel spring for protection. During the study, rats were kept unrestrained in a plastic shoe box cage (12"×10"×12") with about one inch of bedding. After 15 minutes of acclimation, a basal sample was taken for measurement of insulin and glucose levels. At time -60 minutes, rats were given a bolus of 20% dextrose to raise plasma glucose to 150 mg/dl. The plasma glucose concentration was maintained at this level for the duration of the study by measuring the plasma glucose concentration every five minutes and adjusting the calibrated variable infusion pump accordingly. Blood samples were collected at -15 and 0 minutes for baseline measurements. Immediately after taking the zero minute sample, peptide (130-155 μM stock concentration, diluted in phosphate buffered saline) was injected via the jugular vein catheter and flushed with saline. Blood samples were taken for glucose and insulin determinations at 2, 4, 6, 8, 10, 12, 15, 20, 25, 30, 40, 50, 60, 70, 80, and 90 minutes. All blood samples were collected into syringes coated with sodium heparin, transferred into micro centrifuge tubes and placed on ice. Blood samples were then centrifuged in a micro centrifuge to separate the plasma component.
Plasma glucose levels were determined on the day of the study by the glucose oxidase method using the Beckman Glucose Analyzer 2, while the insulin concentrations were measured by a commercial kit (Diagnostic Products Corporation) with rat insulin standard.
Insulin change (the change in insulin from the baseline value) was calculated as the difference between the insulin concentration at time t and the average insulin concentration prior to injection of test substance. The area under the insulin change curve was calculated using the trapezoidal rule. Glucose infusion rate change (the percent change in the glucose infusion rate from the baseline value) was calculated as the difference between the glucose infusion rate value at time t and the average glucose infusion rate prior to injection of test substance, divided by the average glucose infusion rate prior to injection of test substance, times 100. The area under the glucose infusion rate change curve was calculated on the absolute glucose infusion rate change values (calculated as the difference between the glucose infusion rate value at time t and the glucose infusion rate prior to injection of test substance) using the trapezoidal rule. Values are listed as the mean ± the standard error of the mean (SEM).

[2] = system: beagles; assay: Dog I.V. Hyperglycemic (150 mg/dl) Clamp Test; format: in vivo; settings: I.V. 1.0 μg/kg
Method: a) Hyperglycemic Clamp Studies
Experiments were conducted in overnight-fasted, conscious, adult (1-2 years of age) male and female beagles weighing 8-15 kg. At least ten days prior to the study, animals were anesthetized with isoflurane, and a cut-down was made in the left or right inguinal region. Silastic catheters were inserted into the femoral artery and the proximal caudal femoral vein and secured with 4-0 silk suture. The free ends of the catheters were passed subcutaneously to the back using a trocar needle. The catheters were then filled with a glycerol/heparin solution (3:1, v/v; final heparin concentration of 250 KIU/ml), and the free ends were knotted and placed in a subcutaneous pocket to allow complete closure of the skin. Keflex® was administered both pre-operatively (20 mg/kg, IV and 20 mg/kg, I.M.) and post-operatively (250 mg, p.o. once daily for seven days) to prevent infections. Torbugesic (1.5 mg/kg, I.M.) was administered post-operativelyto control pain.
Blood was drawn just prior to the study day to determine the health of the animal. Only animals with hematocrits above 38% and leukocyte counts below 16,000/mm^3 were used.
The afternoon before the experiment, the free ends of the catheters were exteriorized from the subcutaneous pocket through a small incision made under local anesthesia (2% lidocaine), and the dog was fitted with a tether system jacket and collar assembly.
The morning of the experiment, the contents of the catheters were aspirated, the catheters were flushed with saline, and extension lines (protected by a stainless steel tether) were attached to the catheters. On mornings of IV injection experiments, an over-the-needle, teflon catheter was inserted percutaneously into a cephalic vein in preparation for the administration of an IV bolus of test substance. The dog was placed in a metabolic cage, and the catheter extension lines and tether were attached to a swivel system to allow the dog to move freely about the cage. At this time (-60 minutes), an exogenous infusion of glucose (50% w/v in water) was begun through the chronic venous catheter. Glucose was infused in a descending stepwise fashion over the first six minutes of the study to rapidly raise the plasma glucose concentration to 150 mg/dl. Plasma glucose concentrations were determined every 2.5 to 7.5 minutes throughout the remainder of the study, and the glucose infusion rate was adjusted appropriately to maintain the plasma glucose concentration at 150 mg/dl.
Sixty minutes after the start of the glucose infusion (time 0), test substance was administered either intravenously (1.0, 2.9, 5.0 or 10.0 μg/kg; dose dissolved in 2 ml of saline containing 0.3% dog albumin, w/v) through the previously inserted teflon catheter or subcutaneously (10 μg/kg; 150 μM in phosphate buffered saline) in the dorsal aspect of the neck.
Arterial blood samples (3.5 ml) were taken at -30, -15, 0, 2.5, 5, 7.5, 10, 12.5, 15, 20, 30, 45, 60, 75, 90, 105 and 120 minutes during the IV studies and at -30, -15, 0, 3, 6, 9, 12, 15, 20, 30, 45, 60, 75, 90, 105 and 120 minutes during the SC studies. Samples were collected in vacuum blood collection tubes containing disodium EDTA and immediately placed on ice. To prevent proteolytic cleavage of GLP-1(7-37) in the plasma samples, 1.5 ml of the EDTA containing blood were transferred to a polypropylene tube containing 40 μl of aprotinin (10,000 KIU/ml) and mixed well. The samples were centrifuged, and the resulting plasma was transferred to polypropylene test tubes and stored on ice for the duration of the study.
At the conclusion of the experiment, the animal was anesthetized (isoflurane); the catheters were flushed with fresh saline and filled with the glycerol/heparin mixture; the free ends of the catheters were knotted and placed subcutaneously as described earlier; and antibiotic was administered (300 mg Keflex®, I.M.). […]

Lys^34 -N^ε -octanoyl-GLP-1(7-37)OH [Lys^34-N^ε-octanoyl-GLP-1(7-37)OH]
Insulin Change AUC ([1]; I.V. 1.0 μg/kg): 13.2 ng·min/mL | GIR Change AUC ([1]; I.V. 1.0 μg/kg): 132 mg/kg | Max Insulin Change ([1]; I.V. 1.0 μg/kg): 2.4 ± 0.8 ng/mL | Duration of Insulin Effect ([1]; I.V. 1.0 μg/kg): 4 min | GIR Change AUC ([2]; 0-60 min, mean ± SEM): 463 ± 12 mg/kg | Insulin Change AUC ([2]; 0-60 min, mean ± SEM): 50 ± 2 ng·min/mL | Max Insulin Change ([2]; 120 minute test period, mean ± SEM): 3.8 ± 1.0 ng/mL | Duration of Insulin Effect ([2]; time average insulin change consistently ≥0.5 ng/ml): 15 min

GLP-1(7-37)OH
Insulin Change AUC ([1]; I.V. 0.05 μg/kg): 3.0 ± 1.6 ng·min/mL | GIR Change AUC ([1]; I.V. 0.05 μg/kg): 48 ± 22 mg/kg | Max Insulin Change ([1]; I.V. 0.05 μg/kg): 1.6 ± 0.3 ng/mL | Duration of Insulin Effect ([1]; I.V. 0.05 μg/kg): 6 min | Insulin Change AUC ([1]; I.V. 0.1 μg/kg): 7.3 ± 2.8 ng·min/mL | GIR Change AUC ([1]; I.V. 0.1 μg/kg): 150 mg/kg | Max Insulin Change ([1]; I.V. 0.1 μg/kg): 3.6 ± 1.2 ng/mL | Duration of Insulin Effect ([1]; I.V. 0.1 μg/kg): 6 min | Insulin Change AUC ([1]; I.V. 0.2 μg/kg): 5.8 ± 0.9 ng·min/mL | GIR Change AUC ([1]; I.V. 0.2 μg/kg): 154 mg/kg | Max Insulin Change ([1]; I.V. 0.2 μg/kg): 2.8 ± 0.1 ng/mL | Duration of Insulin Effect ([1]; I.V. 0.2 μg/kg): 6 min | Insulin Change AUC ([1]; I.V. 0.6 μg/kg): 14.9 ng·min/mL | GIR Change AUC ([1]; I.V. 0.6 μg/kg): 151 mg/kg | Max Insulin Change ([1]; I.V. 0.6 μg/kg): 4.9 ± 1.3 ng/mL | Duration of Insulin Effect ([1]; I.V. 0.6 μg/kg): 6 min | Insulin Change AUC ([1]; I.V. 1.0 μg/kg): 16.7 ng·min/mL | GIR Change AUC ([1]; I.V. 1.0 μg/kg): 131 mg/kg | Max Insulin Change ([1]; I.V. 1.0 μg/kg): 7.7 ± 0.8 ng/mL | Duration of Insulin Effect ([1]; I.V. 1.0 μg/kg): 6 min | Insulin Change AUC ([1]; I.V. 2.0 μg/kg): 11.5 ng·min/mL | GIR Change AUC ([1]; I.V. 2.0 μg/kg): 152 mg/kg | Max Insulin Change ([1]; I.V. 2.0 μg/kg): 3.6 ± 0.9 ng/mL | Duration of Insulin Effect ([1]; I.V. 2.0 μg/kg): 6 min | Insulin Change AUC ([1]; I.V. 4.0 μg/kg): 10.4 ng·min/mL | GIR Change AUC ([1]; I.V. 4.0 μg/kg): 139 mg/kg | Max Insulin Change ([1]; I.V. 4.0 μg/kg): 2.0 ± 0.4 ng/mL | Duration of Insulin Effect ([1]; I.V. 4.0 μg/kg): 40 min
